In US20260158028A1, “USE OF QUINOLINONE DERIVATIVE IN TREATMENT OF IMMUNE THROMBOCYTOPENIA” (CHIA TAI TIANQING PHARMACEUTICAL GROUP CO., LTD., priority 2021, published 2026):

System: adult subjects with persistent or chronic immune thrombocytopenia
Experiment: Clinical trial for immune thrombocytopenia (platelet counts, safety)
Format: in vivo, human
Conditions: for platelet count: 600 mg/d; for clinical efficacy in treating immune thrombocytopenia: adult persistent or chronic immune thrombocytopenia; for overall safety: tablets orally once daily on an empty stomach, 28-day cycles, 6 subjects; for percentage of subjects with at least one platelet count of ≥30×10^9/L and an increase of ≥2 times the baseline in platelet count / percentage of subjects with at least one platelet count of ≥50×10^9/L: within 12 weeks of treatment; for percentage of subjects with at least one platelet count of ≥30×10^9/L and an increase of ≥2 times the baseline in platelet count: in the absence of emergency treatment, evaluated patients
Procedure: Test drug: tablets of the compound of formula I, 50 mg/tablet or 200 mg/tablet; Administration regimen: orally taken once daily on an empty stomach, with 28 consecutive days of administration as one treatment cycle.
Neutrophil count (ANC)>1.5×10^9/L; hemoglobin (Hb)>90 g/L; • b. Total bilirubin (TBIL), alanine aminotransferase (ALT), and aspartate aminotransferase (AST)≤1.5 times the upper limit of normal (ULN); serum creatinine≤1.5×ULN, and creatinine clearance rate≥50 mL/min; • c. […] Prothrombin time (PT) is within the normal range±3 s, and activated partial thromboplastin time (APTT) is within the normal range±10 s; • e. The subject has no history of coagulation disorders other than immune thrombocytopenia. • 8) A female subject of childbearing age should agree to take contraceptive measures (such as intrauterine devices, contraceptives, or condoms) during the study and for 90 days after the study; serum pregnancy test results should be negative within 7 days before enrollment, and the subject must be a non-lactating one; a male subject should agree to take contraceptive measures during the study and for 6 months after the study.
Efficacy was evaluated according to the platelet counts, WHO bleeding scores, and emergency treatment received of the subjects. The effective rate of platelet count increase was used as a main measure of efficacy, and for evaluation criteria, reference was made to American Society of Hematology 2019 Guidelines for Immune Thrombocytopenia and Chinese Guidelines for Diagnosing and Treating Adult Primary Immune Thrombocytopenia (2020 Edition).
A total of 6 subjects were enrolled, with 3 in the 400 mg group (the dose for 2 of them was increased to 600 mg) and 3 in the 600 mg group.

[1] = 400 mg and 600 mg groups, listed as tablets of the compound of formula I
[2] = tablets orally once daily, 400 mg and 600 mg groups

## Cn1c(=O)c(Nc2ccc(N3CCN(C4COC4)CC3)cn2)cc2c(F)c(-c3cc[nH]n3)ccc21 [compound of formula I]
Subject 1, previous third-line therapy, baseline mean 22, D 3
  platelet count: 5.2e+10 L⁻¹
Subject 1, previous third-line therapy, baseline mean 22, D 11
  platelet count: 2.2e+11 L⁻¹
Subject 1, previous third-line therapy, baseline mean 22, D 18
  platelet count: 7e+09 L⁻¹
Subject 1, previous third-line therapy, baseline mean 22, D 25
  platelet count: 9e+09 L⁻¹
Subject 1, previous third-line therapy, baseline mean 22, W 5 D 1
  platelet count: 8.9e+10 L⁻¹
Subject 1, previous third-line therapy, baseline mean 22, W 6 D 1
  platelet count: 8.4e+10 L⁻¹
Subject 1, previous third-line therapy, baseline mean 22, W 7 D 1
  platelet count: 3.5e+10 L⁻¹
Subject 1, previous third-line therapy, baseline mean 22, W 8 D 1
  platelet count: 1.31e+11 L⁻¹
Subject 1, previous third-line therapy, baseline mean 22, W 9 D 1
  platelet count: 2.24e+11 L⁻¹
Subject 1, previous third-line therapy, baseline mean 22, W 10 D 1
  platelet count: 2.5e+10 L⁻¹
Subject 1, previous third-line therapy, baseline mean 22, W 12 D 1
  platelet count: 1e+11 L⁻¹
Subject 2, previous second-line therapy, baseline mean 6.5, D 3
  platelet count: 1e+10 L⁻¹
Subject 2, previous second-line therapy, baseline mean 6.5, D 11
  platelet count: 3.1e+10 L⁻¹
Subject 2, previous second-line therapy, baseline mean 6.5, D 18
  platelet count: 3.5e+10 L⁻¹
Subject 2, previous second-line therapy, baseline mean 6.5, D 25
  platelet count: 2.1e+10 L⁻¹
Subject 3, previous first-line therapy, baseline mean 33.5, D 3
  platelet count: 5.8e+10 L⁻¹
Subject 3, previous first-line therapy, baseline mean 33.5, D 11
  platelet count: 8.3e+10 L⁻¹
Subject 3, previous first-line therapy, baseline mean 33.5, D 18
  platelet count: 3.4e+10 L⁻¹
  clinical efficacy in treating immune thrombocytopenia: can effectively improve the platelet count
Listed as tablets of the compound of formula I
  clinical efficacy in treating immune thrombocytopenia: excellent clinical efficacy
400 mg and 600 mg groups
  overall safety: good safety
  percentage of subjects with at least one platelet count of ≥30×10^9/L and an increase of ≥2 times the baseline in platelet count: relatively high
  percentage of subjects with at least one platelet count of ≥50×10^9/L: relatively high
[1]
  overall safety: controllable
  percentage of subjects with at least one platelet count of ≥30×10^9/L and an increase of ≥2 times the baseline in platelet count: 50%
  percentage of subjects with at least one platelet count of ≥50×10^9/L: 33.3%
[2]
  dose-limiting toxicity (DLT) events: no dose-limiting toxicity (DLT) events
  treatment-related adverse events of grade 3 or higher: no treatment-related adverse events of grade 3 or higher
